Data: patent publication US7084136B2, “Drug composition antagonistic to both PGD2/TXA2 receptors” (Shionogi & Co., Ltd., priority 2000, dated 2006)
Read-outs that look alike come from different tables or passages of the source.

What was measured:
PGD2 receptor [1] = target: T1, PGD2 receptor (Homo sapiens, UniProt Q13258); experiment: Binding activity to PGD2 receptor ([3H]PGD2, human platelet membrane fraction)
T1 construct: A suspension adjusted to contain the platelets at a final concentration of 5×10^8/ml was warmed at 37° C; endogenous in cells; host or cells: washed human platelets from a healthy volunteer
T1 sequence (Q13258 1-359): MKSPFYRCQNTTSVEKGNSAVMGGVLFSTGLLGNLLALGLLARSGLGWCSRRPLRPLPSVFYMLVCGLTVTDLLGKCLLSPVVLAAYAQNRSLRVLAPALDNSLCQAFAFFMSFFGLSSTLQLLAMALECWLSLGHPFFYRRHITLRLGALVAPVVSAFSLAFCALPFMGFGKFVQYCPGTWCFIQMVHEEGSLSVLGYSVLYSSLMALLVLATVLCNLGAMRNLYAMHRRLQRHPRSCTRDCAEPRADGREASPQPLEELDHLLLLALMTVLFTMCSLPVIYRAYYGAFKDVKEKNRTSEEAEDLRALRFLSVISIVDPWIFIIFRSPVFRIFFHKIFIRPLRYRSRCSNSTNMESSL
Method: Experiment 1 Binding Activity to PGD2 Receptor
(§1) (1) Preparation of Human Platelet Membrane Fraction
Blood was collected using a plastic syringe containing 3.8% sodium citrate from the vein of healthy volunteers (adult male and female), then put into a plastic test tube and mixed by slow-reversion. The sample was then centrifuged at 1800 rpm, for 10 min at room temperature, and the supernatant containing PRP (platelet-rich plasma) was collected. The PRP was re-centrifuged at 2300 rpm, for 22 min at room temperature to obtain platelets. The platelets were homogenized using a homogenizer (Ultra-Turrax) followed by centrifugation 3 times at 20,000 rpm, 10 min at 4° C. to obtain a platelet membrane fraction. After protein determination, the membrane fraction was adjusted to 2 mg/ml and preserved in a refrigerator at −80° C. until using for the binding test.
(2) Binding to PGD2 Receptor
To a binding-reaction solution (50 mM Tris/HCl, pH 7.4, 5 mM MgCl2) (0.2 ml) were added the human platelet membrane fraction (0.1 mg) and 5 nM [^3H]PGD2 (115 Ci/mmol), and the mixture was reacted at 4° C. for 90 min. After the reaction, the mixture was filtered through a glass fiber filter paper and washed several times with cooled physiological saline, then the radioactivity retained on the filter paper was measured. The specific-binding ratio was calculated by subtracting the non-specific binding ratio which is the radioactivity similarly measured in the presence of 10 μM PGD2 from the total binding. The inhibitory activity of each compound was expressed as the concentration required for 50% inhibition (IC50), which was determined by depicting a substitution curve by plotting the binding ratio (%) in the presence of each compound, where the binding ratio in the absence of a test compound is 100%.

TXA2 receptor = target: T2, TXA2 receptor (Homo sapiens, UniProt P21731); experiment: Binding activity to TXA2 receptor ([3H](+)-S-145 sodium salt, human platelet membrane fraction)
T2 construct: The human platelet membrane fraction was prepared in accordance with Experiment 1 (1); from tissue; host or cells: human platelet membrane fraction from blood of healthy volunteers
T2 sequence (P21731 1-343): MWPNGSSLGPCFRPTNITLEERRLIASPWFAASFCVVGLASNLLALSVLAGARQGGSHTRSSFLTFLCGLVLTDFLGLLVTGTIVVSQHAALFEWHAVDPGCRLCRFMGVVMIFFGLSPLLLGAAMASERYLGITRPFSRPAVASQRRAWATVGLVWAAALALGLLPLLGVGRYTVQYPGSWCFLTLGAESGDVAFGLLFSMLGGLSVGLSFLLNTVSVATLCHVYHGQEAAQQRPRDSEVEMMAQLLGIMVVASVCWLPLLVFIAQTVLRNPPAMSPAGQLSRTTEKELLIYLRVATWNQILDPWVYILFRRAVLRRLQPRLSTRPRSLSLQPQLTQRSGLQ
Method: Experiment 2 Binding Activity to TXA2 Receptor
as §1
The human platelet membrane fraction was prepared in accordance with Experiment 1 (1).
(2) Binding to TXA2 Receptor
To a binding-reaction solution (50 mM Tris/HCl, pH 7.4, 10 mM MgCl2) (0.2 ml) were added the human platelet membrane fraction (0.05 mg) and 2 nM Sodium [^3H](+)-(5Z)-7-[3-endo-[(phenylsulfonyl)amino]bicyclo[2.2.1]hept-2-exo-yl]heptenoate (Japanese Patent Publication (Kokoku) No.79060/1993, hereinafter referred to as (+)-S-145 sodium salt) (26.4 Ci/mmol), and the mixture was reacted at room temperature for 90 min. After the reaction, the resultant mixture was filtered through a glass fiber filter paper and washed several times with cooled physiological saline, then the radioactivity retained on the filter paper was measured. The specific-binding ratio was calculated by subtracting the non-specific binding ratio (the radio activity similarly determined in the presence of 10 μM (+)-S-145 sodium salt) from the total binding. The inhibitory activity of each compound was expressed as the concentration required for 50% inhibition (IC50), which was determined by depicting a substitution curve by plotting the binding ratio (%) in the presence of each compound, where the binding ratio in the absence of a test compound is 100%.

PGD2 receptor [2] = target: T1, PGD2 receptor; experiment: Antagonistic activity against PGD2 receptor using human platelet (inhibition of PGD2-induced cAMP increase); assay type: cell-based
Method: Experiment 3 Evaluation of Antagonistic Activity Against PGD2 Receptor
Receptor Using Human Platelet
Peripheral blood was collected from a healthy volunteer using a syringe in which 1/9 volume of a citric acid/dextrose solution was previously added. The sample was subjected to centrifugation at 1200 rpm for 10 min to obtain the supernatant (PRP: platelet rich plasma). The resultant PRP was washed 3 times with a washing buffer and the number of platelets was counted with a micro cell counter. A suspension adjusted to contain the platelets at a final concentration of 5×10^8/ml was warmed at 37° C., then subjected to the pre-treatment with 3-isobutyl-1-methylxanthine (0.5 mM) for 5 min. To the suspension was added a test compound diluted at various concentration, and 10 minutes later, 0.1 μM PGD2 was added to induce the reaction 2 minutes later, hydrochloric acid was added to terminate the reaction. The platelet was destroyed with an ultrasonic homogenizer. After centrifugation, the cAMP in the supernatant was determined by radioimmunoassay. PGD2 receptor antagonism of a drug was evaluated as follows: the inhibition rate regarding cAMP increased by the addition of PGD2 was determined at each concentration, and the concentration of the drug required for 50% inhibition (IC50) was calculated.

[3] = human platelet membrane fraction, 2 nM [3H](+)-S-145 sodium salt, read-out: Binding activity to TXA2 receptor in human platelet membrane fraction IC50
[4] = human platelet, 0.1 μM PGD2, read-out: Inhibitory activity for the increase of cAMP caused by PGD2 in human platelet IC50
[5] = human platelet membrane fraction, read-out: Binding activity to PGD2 receptor in human platelet membrane fraction IC50

Structure (SMILES)	IC50 (PGD2 receptor [1]; comparative experiment in accordance with Experiment 1, read-out: Experiment 1 Antagonistic activity against PGD2 receptor IC50) [nM]	IC50 (TXA2 receptor; comparative experiment in accordance with Experiment 2, read-out: Experiment 2 Antagonistic activity against TXA2 receptor IC50) [nM]	IC50 (PGD2 receptor [2]; comparative experiment in accordance with Experiment 3, read-out: Experiment 3 Antagonistic activity against PGD2 receptor IC50) [nM]	IC50 (TXA2 receptor; [3]) [nM]	IC50 (PGD2 receptor [2]; [4]) [nM]	IC50 (PGD2 receptor [1]; [5]) [nM]
CC1(C)[C@H]2C[C@H](C/C=C\CCCC(=O)O)[C@@H](NC(=O)c3csc4ccccc34)[C@@H]1C2 [B-1, reference compound]	22	370	30			
O=C(O)COCCCC[C@H]1[C@@H]2CC[C@@H](C2)[C@@H]1NC(=O)c1ccc(Sc2cccs2)s1 [I-7M-59a]				40	24	
O=C(O)CCC/C=C\C[C@H]1[C@@H]2CC[C@@H](C2)[C@@H]1NC(=O)c1ccc(S(=O)(=O)n2cccc2)cc1 [I-10]				92	1.8	1.6
O=C(O)CCC/C=C\C[C@H]1[C@@H]2CC[C@@H](C2)[C@@H]1NC(=O)c1ccc(Cc2ccccc2)s1 [I-31]				130	5.7	8.2
O=C(O)CCC/C=C\C[C@H]1[C@@H]2CC[C@@H](C2)[C@@H]1NC(=O)c1ccc(SCc2cccs2)cc1 [I-66]				34	44	4.6
COc1ccccc1Cc1ccc(C(=O)N[C@H]2[C@H]3CC[C@H](C3)[C@@H]2CCCC/C=C/C(=O)O)s1 [I-71-126a]				61	21	
O=C(O)CCC/C=C\C[C@H]1[C@@H]2CC[C@@H](C2)[C@@H]1NC(=O)c1cc(Cc2cccs2)cs1 [I-88]				78	4.7	7.6
O=C(O)CCC/C=C\C[C@H]1[C@@H]2CC[C@@H](C2)[C@@H]1NC(=O)c1ccc(Cc2cccs2)s1 [I-93]				72	8.4	7
O=C(O)CCC/C=C\C[C@H]1[C@@H]2CC[C@@H](C2)[C@@H]1NC(=O)c1ccn(S(=O)(=O)c2cccs2)c1 [I-94]				83	10	1
O=C(O)CCC/C=C\C[C@H]1[C@@H]2CC[C@@H](C2)[C@@H]1NC(=O)c1ccc(CSc2cccs2)s1 [I-104]				39	1.6	0.1
Cc1ccc(Cc2ccc(C(=O)N[C@H]3[C@H]4CC[C@H](C4)[C@@H]3C/C=C\CCCC(=O)O)s2)c(C)c1 [I-128]				48	10	20
Cc1ccc(Cc2ccc(C(=O)N[C@H]3[C@H]4CC[C@H](C4)[C@@H]3C/C=C\CCCC(=O)O)s2)s1 [I-129]				52	22	11
O=C(O)CCC/C=C\C[C@H]1[C@@H]2CC[C@@H](C2)[C@@H]1NC(=O)c1cc2ccc(Cc3ccccc3)cc2s1 [I-160]				20	85	28
O=C(O)CCC/C=C\C[C@H]1[C@@H]2CC[C@@H](C2)[C@@H]1NC(=O)c1csc2c(Cc3cccs3)cccc12 [I-168]				34	29	0.46
O=C(O)CCC/C=C\C[C@H]1[C@@H]2CC[C@@H](C2)[C@@H]1NC(=O)c1csc2c(Cc3ccsc3)cccc12 [I-169]				32	26	0.61

The remaining compounds from weak to strong by IC50 (TXA2 receptor; [3]), led by results:

IC50 (PGD2 receptor [1]; comparative experiment in accordance with Experiment 1, read-out: Experiment 1 Antagonistic activity against PGD2 receptor IC50) [nM]	IC50 (TXA2 receptor; comparative experiment in accordance with Experiment 2, read-out: Experiment 2 Antagonistic activity against TXA2 receptor IC50) [nM]	IC50 (PGD2 receptor [2]; comparative experiment in accordance with Experiment 3, read-out: Experiment 3 Antagonistic activity against PGD2 receptor IC50) [nM]	IC50 (TXA2 receptor; [3]) [nM]	IC50 (PGD2 receptor [2]; [4]) [nM]	IC50 (PGD2 receptor [1]; [5]) [nM]	Structure (SMILES)
			19	41	44	Cc1cccc(Cc2ccc(C(=O)N[C@H]3[C@H]4CC[C@H](C4)[C@@H]3C/C=C\CCCC(=O)O)s2)c1 [I-131]
			19	73	44	O=C(O)CCC/C=C\C[C@H]1[C@@H]2CC[C@@H](C2)[C@@H]1NC(=O)c1ccc(Cc2ccc(OCc3ccccc3)c(O)c2)s1 [I-146]
			16	4.6	0.41	O=C(O)CCC/C=C\C[C@H]1[C@@H]2CC[C@@H](C2)[C@@H]1NC(=O)c1ccc(Sc2cccs2)s1 [I-59]
			16	15	23	O=C(O)CCC/C=C\C[C@H]1[C@@H]2CC[C@@H](C2)[C@@H]1NC(=O)c1ccc(Cc2cc3ccccc3o2)s1 [I-136]
			15	24	0.42	O=C(O)CCC/C=C\C[C@H]1[C@@H]2CC[C@@H](C2)[C@@H]1NC(=O)c1ccc(Sc2ccsc2)s1 [I-79]
			13	9.3	13	O=C(O)CCC/C=C\C[C@H]1[C@@H]2CC[C@@H](C2)[C@@H]1NC(=O)c1ccc(SCc2cccs2)s1 [I-106]
			12	43	32	Cc1cccc(SCc2ccc(C(=O)N[C@H]3[C@H]4CC[C@H](C4)[C@@H]3C/C=C\CCCC(=O)O)s2)c1 [I-132]
			11	79		O=C(O)CCCC[C@H]1[C@@H]2CC[C@@H](C2)[C@@H]1NC(=O)c1ccc(Sc2cccs2)s1 [I-5A-59a]
			9.8	12		O=C(O)CCCCCC[C@H]1[C@@H]2CC[C@@H](C2)[C@@H]1NC(=O)c1ccc(Sc2cccs2)s1 [I-7A-59a]
			6.2	7	4.1	O=C(O)CCC/C=C\C[C@H]1[C@@H]2CC[C@@H](C2)[C@@H]1NC(=O)c1ccc(S(=O)(=O)c2cccs2)s1 [I-47]
			5.2	39	6.6	O=C(O)CCC/C=C\C[C@H]1[C@@H]2CC[C@@H](C2)[C@@H]1NC(=O)c1ccc(S(=O)(=O)c2ccsc2)s1 [I-80]
			3.8	47	9.1	O=C(O)CCC/C=C\C[C@H]1[C@@H]2CC[C@@H](C2)[C@@H]1NC(=O)c1ccc(S(=O)(=O)c2cccc(O)c2)s1 [I-117]
			1.8	53	32	Cc1ccc(S(=O)(=O)c2ccc(C(=O)N[C@H]3[C@H]4CC[C@H](C4)[C@@H]3C/C=C\CCCC(=O)O)s2)s1 [I-82]
			0.9	26		Cc1ccc(C)n1S(=O)(=O)c1ccc(C(=O)N[C@H]2[C@H]3CC[C@H](C3)[C@@H]2CCCC/C=C/C(=O)O)s1 [I-71-270a]
